Test results as given in patent publication US8461152B2, “Arylcyclohexylethers of dihydrotetraazabenzoazulenes” (Hoffmann-La Roche Inc., priority 2008, dated 2013).

Target: T1, human V1a receptor (Homo sapiens, UniProt P37288)
T1 construct: expressed in transfected cells; host or cells: HEK293 cells, transiently transfected; membrane preparation
Assay: human V1a receptor binding studies (SPA, 3H-Vasopressin, membranes of transfected HEK293 cells)
Details: displacement of 3H-Vasopressin, HEK293 cell membranes, 1 h at room temperature; Ki by Cheng-Prussoff equation; read-out: pKi (hV1a) (converted)
Protocol: The human V1a receptor was cloned by RT-PCR from total human liver RNA. The coding sequence was subcloned in an expression vector after sequencing to confirm the identity of the amplified sequence. […] Cell membranes were prepared from HEK293 cells transiently transfected with the expression vector and grown in 20 liter fermenters with the following protocol.
50 g of cells are resuspended in 30 ml freshly prepared ice cold Lysis buffer (50 mM HEPES, 1 mM EDTA, 10 mM magnesium dichloride adjusted to pH=7.4+complete cocktail of protease inhibitor (Roche Diagnostics)). Homogenized with Polytron for 1 min and sonicated on ice for 2×2 minutes at 80% intensity (Vibracell sonicator). The preparation is centrifuged 20 min at 500 g at 4° C., the pellet is discarded and the supernatant centrifuged 1 hour at 43'000 g at 4° C. (19'000 rpm). The pellet is resuspended in 12.5 ml Lysis buffer+12.5 ml Sucrose 20% and homogenized using a Polytron for 1-2 min. The protein concentration is determined by the Bradford method and aliquots are stored at −80° C. until use. For binding studies 60 mg Yttrium silicate SPA beads (Amersham) are mixed with an aliquot of membrane in binding buffer (50 mM Tris, 120 mM sodium chloride, 5 mM potassium chloride, 2 mM Calcium dichloride, 10 mM magnesium dichloride) for 15 minutes with mixing. 50 μl of bead/membrane mixture is then added to each well of a 96 well plate, followed by 50 μl of 4 nM 3H-Vasopressin (American Radiolabeled Chemicals). For total binding measurement 100 μl of binding buffer are added to the respective wells, for non-specific binding 100 μl of 8.4 mM cold vasopressin and for compound testing 100 μl of a serial dilution of each compound in 2% dimethyl sulfoxide. The plate is incubated 1 h at room temperature, centrifuged […] at 1000 g and counted on a Packard Top-Count. Non-specific binding counts are subtracted from each well and data is normalized to the maximum specific binding set at 100%. To calculate an IC 50 the curve is fitted using a non-linear regression model (XLfit) and the Ki is calculated using the Cheng-Prussoff equation.

T1 sequence (P37288 whole entry): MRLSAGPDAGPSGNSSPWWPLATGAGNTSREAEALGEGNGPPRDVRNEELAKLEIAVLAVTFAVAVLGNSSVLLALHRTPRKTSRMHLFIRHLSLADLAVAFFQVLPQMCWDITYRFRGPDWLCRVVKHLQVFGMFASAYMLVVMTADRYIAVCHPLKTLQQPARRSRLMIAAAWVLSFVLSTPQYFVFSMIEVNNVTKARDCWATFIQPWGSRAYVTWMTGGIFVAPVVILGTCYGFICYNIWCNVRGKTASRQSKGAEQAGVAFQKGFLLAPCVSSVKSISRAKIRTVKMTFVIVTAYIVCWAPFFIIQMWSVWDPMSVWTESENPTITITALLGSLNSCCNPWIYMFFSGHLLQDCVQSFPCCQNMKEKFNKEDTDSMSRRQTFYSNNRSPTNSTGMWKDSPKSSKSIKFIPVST

Structure (SMILES) | Ki
CN1Cc2cc(Cl)ccc2-n2c(nnc2[C@H]2CC[C@H](Oc3ncccn3)CC2)C1 [Example 82, trans-8-Chloro-5-methyl-1-[4-(pyrimidin-2-yloxy)-cyclohexyl]-5,6-dihydro-4H-2,3,5,10b-tetraaza-benzo[e]azulene] | 5.5 nM
CC(C)(C)OC(=O)N1Cc2cc(Cl)ccc2-n2c(nnc2[C@H]2CC[C@H](Oc3cnccn3)CC2)C1 [Example 83, trans-8-Chloro-1-[4-(pyrazin-2-yloxy)-cyclohexyl]-4H,6H-2,3,5,10b-tetraaza-benzo[e]azulene-5-carboxylic acid tert-butyl ester] | 4.07 nM
CN1Cc2cc(Cl)ccc2-n2c(nnc2[C@H]2CC[C@H](Oc3cnccn3)CC2)C1 [Example 85, trans-8-Chloro-5-methyl-1-[4-(pyrazin-2-yloxy)-cyclohexyl]-5,6-dihydro-4H-2,3,5,10b-tetraaza-benzo[e]azulene] | 7.59 nM
CC(C)(C)OC(=O)N1Cc2cc(Cl)ccc2-n2c(nnc2[C@H]2CC[C@H](Oc3ccncn3)CC2)C1 [Example 86, trans-8-Chloro-1-[4-(pyrimidin-4-yloxy)-cyclohexyl]-4H,6H-2,3,5,10b-tetraaza-benzo[e]azulene-5-carboxylic acid tert-butyl ester] | 3.47 nM
CN1Cc2cc(Cl)ccc2-n2c(nnc2[C@H]2CC[C@H](Oc3ccncn3)CC2)C1 [Example 89, trans-8-Chloro-5-methyl-1-[4-(pyrimidin-4-yloxy)-cyclohexyl]-5,6-dihydro-4H-2,3,5,10b-tetraaza-benzo[e]azulene] | 12.3 nM
CC(C)(C)OC(=O)N1Cc2cc(Cl)ccc2-n2c(nnc2[C@H]2CC[C@H](Oc3cccnn3)CC2)C1 [Example 92, trans-8-Chloro-1-[4-(pyridazin-3-yloxy)-cyclohexyl]-4H,6H-2,3,5,10b-tetraaza-benzo[e]azulene-5-carboxylic acid tert-butyl ester] | 2.4 nM
CC(C)(C)OC(=O)N1Cc2cc(Cl)ccc2-n2c(nnc2[C@H]2CC[C@@H](Oc3cccnn3)CC2)C1 [Example 93, cis-8-Chloro-1-[4-(pyridazin-3-yloxy)-cyclohexyl]-4H,6H-2,3,5,10b-tetraaza-benzo[e]azulene-5-carboxylic acid tert-butyl ester] | 7.94 nM
CN1Cc2cc(Cl)ccc2-n2c(nnc2[C@H]2CC[C@H](Oc3cccnn3)CC2)C1 [Example 95, trans-8-Chloro-5-methyl-1-[4-(pyridazin-3-yloxy)-cyclohexyl]-5,6-dihydro-4H-2,3,5,10b-tetraaza-benzo[e]azulene] | 9.12 nM
Fc1cccnc1O[C@H]1CC[C@H](c2nnc3n2-c2ccc(Cl)cc2CNC3)CC1 [Example 98, trans-8-Chloro-1-[4-(3-fluoro-pyridin-2-yloxy)-cyclohexyl]-5,6-dihydro-4H-2,3,5,10b-tetraaza-benzo[e]azulene] | 3.02 nM
Fc1ccc(O[C@H]2CC[C@H](c3nnc4n3-c3ccc(Cl)cc3CNC4)CC2)nc1 [Example 101, trans-8-Chloro-1-[4-(5-fluoro-pyridin-2-yloxy)-cyclohexyl]-5,6-dihydro-4H-2,3,5,10b-tetraaza-benzo[e]azulene] | 9.12 nM
Cc1cccc(O[C@H]2CC[C@H](c3nnc4n3-c3ccc(Cl)cc3CNC4)CC2)n1 [Example 105, trans-8-Chloro-1-[4-(6-methyl-pyridin-2-yloxy)-cyclohexyl]-5,6-dihydro-4H-2,3,5,10b-tetraaza-benzo[e]azulene] | 5.75 nM
Clc1ccc2c(c1)CNCc1nnc([C@H]3CC[C@@H](Oc4ccccn4)CC3)n1-2 [Example 110, cis-8-Chloro-1-[4-(pyridin-2-yloxy)-cyclohexyl]-5,6-dihydro-4H-2,3,5,10b-tetraaza-benzo[e]azulene] | 51.3 nM
CN1Cc2cc(Cl)ccc2-n2c(nnc2[C@H]2CC[C@@H](Oc3ccccn3)CC2)C1 [Example 111, cis-8-Chloro-5-methyl-1-[4-(pyridin-2-yloxy)-cyclohexyl]-5,6-dihydro-4H-2,3,5,10b-tetraaza-benzo[e]azulene] | 3.31 nM
